Results from patent US20230066011A1, “PYRROLOPYRIMIDINE DERIVATIVE, AND PHARMACEUTICAL COMPOSITION FOR PREVENTING OR TREATING PROTEIN KINASE-RELATED DISEASE COMPRISING SAME AS ACTIVE INGREDIENT” (VORONOI CO., LTD., priority 2019, published 2023).

What was measured:
human GST-CLK1 = biological target: T1, human GST-CLK1 (Homo sapiens, UniProt P49759); test: GST-CLK1 enzyme inhibition, ADP-Glo kinase assay; format: biochemical; details: ATP 10 μM, GST-CLK1 129-end
T1 construct: purified human GST-CLK1 (129-end, SignalChem) enzyme; purchased SignalChem
Outline: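 ADP-Glo luminescence read-out, relative to untreated solvent control, gave IC50 (nM) from triplicate data sets. Reactions ran an hour at 25° C with 3 ng GST-CLK1 (residues 129-end), 10 μM ATP and specific substrate in Tris-HCl pH 7.4 buffer with MgCl2, BSA and DTT.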

human GST-DYRK1A = biological target: T2, human GST-DYRK1A (Homo sapiens, UniProt Q13627); test: GST-DYRK1A enzyme inhibition, ADP-Glo kinase assay; format: biochemical; details: ATP 10 μM, GST-DYRK1A full length, read-out: DYRK1 IC50
T2 construct: purified human GST-DYRK1A (full length, Thermo Scientifics) enzyme; purchased Thermo Scientifics
Outline: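 Full-length enzyme (10 ng) was incubated with 10 μM ATP and a specific substrate for 1 h at 25 °C in 40 mM Tris-HCl pH 7.4, 20 mM MgCl2, 0.5 mg/mL BSA, 50 μM DTT. Luminescence was read against a solvent control, and IC50 values were derived from 3 data sets.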

human DYRK1A and tau = test: Inhibition of tau phosphorylation, ClariCELL Kinase Cell-Based Assay, HEK 293 cells expressing human DYRK1A and tau; details: for inhibition at 1 µM: HEK293, read-out: % inhibition at 1 uM, tau phosphorylation, compound 1 uM; for inhibition at 0.25 µM / inhibition at 0.5 µM: HEK293, tau phosphorylation; for inhibition at 0.25 µM: compound 0.25 uM; for inhibition at 0.5 µM: compound 0.5 uM
Protocol: An inhibitory effect on tau phosphorylation was determined using the ClariCELL™ Kinase Cell-Based Assay service (commercially available from CamaBio USA, Inc.). Human embryonic kidney (HEK 293) cells temporarily expressing human DYRK1A and tau were exposed to the compound, and then lysed to release cell proteins. In this case, the released tau was captured on a plate, and a degree of phosphorylation was quantified by ELISA using a tau phosphorylation-specific antibody.

LRRK2 (G2019S) = LRRK2 (G2019S) (Homo sapiens, UniProt Q5S007, G2019S); test: LRRK2 G2019S enzyme inhibition, ADP-Glo kinase assay; format: biochemical; parameters: purchased SignalChem L10-12GG; details: ATP 25 μM
Outline: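 IC50 derived from luminescent ADP-Glo readout against untreated solvent control, twelve final compound concentrations from 50 μM downward. Reaction: recombinant human LRRK2 G2019S enzyme, 25 μM ATP, substrate, pH 7.4 Tris buffer with MgCl2/BSA/DTT, 25° C. for 2 hours.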

LRRK2 = LRRK2 (Homo sapiens, UniProt Q5S007); test: LRRK2 enzyme inhibition, ADP-Glo kinase assay; format: biochemical; parameters: purchased Invitrogen PR8604B; details: ATP 10 μM
Outline: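 ADP-Glo luminescent read-out of ADP formed by purified human LRRK2 enzyme (25 ng), 10 μM ATP, 0.2 μg substrate, 25° C for 2 h, Tris-HCl pH 7.4 buffer with MgCl2, BSA, DTT. Inhibition versus untreated solvent control over twelve final concentrations (50 μM downward) gives IC50.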

Chain of LRRK2 (G2019S) (Q5S007 970-2527 G2019S limits assumed): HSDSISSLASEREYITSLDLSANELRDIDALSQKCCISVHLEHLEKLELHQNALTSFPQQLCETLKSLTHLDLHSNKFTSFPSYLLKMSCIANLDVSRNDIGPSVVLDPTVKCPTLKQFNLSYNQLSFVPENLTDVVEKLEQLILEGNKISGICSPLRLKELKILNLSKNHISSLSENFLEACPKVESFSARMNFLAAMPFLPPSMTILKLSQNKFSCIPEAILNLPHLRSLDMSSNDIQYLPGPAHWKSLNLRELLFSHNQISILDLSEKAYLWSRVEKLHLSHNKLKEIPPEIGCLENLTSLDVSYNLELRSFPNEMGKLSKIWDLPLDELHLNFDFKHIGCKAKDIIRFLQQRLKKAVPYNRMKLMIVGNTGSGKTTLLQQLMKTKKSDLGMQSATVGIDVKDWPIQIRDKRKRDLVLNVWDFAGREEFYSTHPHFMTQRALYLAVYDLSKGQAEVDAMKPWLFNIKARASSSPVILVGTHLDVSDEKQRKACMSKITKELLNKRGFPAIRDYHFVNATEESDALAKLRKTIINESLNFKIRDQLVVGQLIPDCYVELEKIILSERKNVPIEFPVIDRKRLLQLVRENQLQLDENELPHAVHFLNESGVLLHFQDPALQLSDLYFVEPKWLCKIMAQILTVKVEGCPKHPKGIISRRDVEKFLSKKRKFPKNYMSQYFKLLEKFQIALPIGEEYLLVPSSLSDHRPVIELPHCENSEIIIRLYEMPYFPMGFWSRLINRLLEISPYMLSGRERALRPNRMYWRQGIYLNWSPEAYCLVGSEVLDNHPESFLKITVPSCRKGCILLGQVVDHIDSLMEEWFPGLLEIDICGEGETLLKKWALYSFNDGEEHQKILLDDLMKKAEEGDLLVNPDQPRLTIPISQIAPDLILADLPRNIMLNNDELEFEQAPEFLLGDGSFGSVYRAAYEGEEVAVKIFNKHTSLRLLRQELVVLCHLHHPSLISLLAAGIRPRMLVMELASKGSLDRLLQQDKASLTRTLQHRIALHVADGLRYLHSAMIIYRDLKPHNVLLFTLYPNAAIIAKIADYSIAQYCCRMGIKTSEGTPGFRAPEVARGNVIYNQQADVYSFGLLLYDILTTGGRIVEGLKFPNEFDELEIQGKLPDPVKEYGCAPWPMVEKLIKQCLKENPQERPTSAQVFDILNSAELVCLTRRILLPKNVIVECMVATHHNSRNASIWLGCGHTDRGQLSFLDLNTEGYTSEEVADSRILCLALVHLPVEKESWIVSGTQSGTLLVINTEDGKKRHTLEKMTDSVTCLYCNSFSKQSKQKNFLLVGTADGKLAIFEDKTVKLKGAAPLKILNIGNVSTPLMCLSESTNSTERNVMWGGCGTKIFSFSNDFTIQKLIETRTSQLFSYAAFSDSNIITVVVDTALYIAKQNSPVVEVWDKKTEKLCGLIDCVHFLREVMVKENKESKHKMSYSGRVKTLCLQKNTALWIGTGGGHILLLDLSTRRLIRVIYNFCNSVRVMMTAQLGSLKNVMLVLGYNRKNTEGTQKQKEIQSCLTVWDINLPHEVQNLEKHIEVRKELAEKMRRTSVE
T1 sequence (P49759 129-484 limits assumed): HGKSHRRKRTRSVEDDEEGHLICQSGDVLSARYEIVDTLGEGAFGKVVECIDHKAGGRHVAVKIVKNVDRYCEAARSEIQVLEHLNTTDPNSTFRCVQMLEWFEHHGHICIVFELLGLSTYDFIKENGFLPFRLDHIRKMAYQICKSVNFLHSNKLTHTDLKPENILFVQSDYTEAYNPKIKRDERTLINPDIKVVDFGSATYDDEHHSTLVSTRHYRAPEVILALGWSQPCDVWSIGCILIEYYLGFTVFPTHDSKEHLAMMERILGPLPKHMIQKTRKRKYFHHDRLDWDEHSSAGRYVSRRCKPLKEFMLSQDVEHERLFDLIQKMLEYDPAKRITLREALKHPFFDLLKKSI
Chain of LRRK2 (Q5S007 970-2527 limits assumed): as the sequence (Q5S007 970-2527 G2019S limits assumed) above, with S1050G counted along it

Structure (SMILES)	IC50 (human GST-CLK1) [nM]	IC50 (human GST-DYRK1A) [nM]	inhibition at 1 µM (human DYRK1A and tau) [%]	inhibition at 0.25 µM (human DYRK1A and tau) [%]	inhibition at 0.5 µM (human DYRK1A and tau) [%]	IC50 (LRRK2 (G2019S)) [nM]	IC50 (LRRK2) [nM]
CC(C)Nc1nc(Nc2ccc(C(=O)N3CCN(C4COC4)CC3)c3c2OCCO3)nc2[nH]cc(C(F)(F)F)c12 [Example 441, (8-((4-(isopropylamino)-5-(trifluoromethyl)-7H-pyrrolo[2,3-d]pyrimidin-2-yl)amino)-2,3-dihydrobenzo[b] [1,4]dioxin-5-yl) (4-(oxetan-3-yl)piperazin-1-yl)methanone]	< 100	101 to 300	75.5	19.6	57.4	–	–
COc1cc(P2(=O)CCN(C3CC3)CC2)ccc1Nc1nc(NC(C)C)c2c(C(F)(F)F)c[nH]c2n1 [Example 440, 1-cyclopropyl-4-(4-((4-(isopropylamino)-5-(trifluoromethyl)-7H-pyrrolo[2,3-d]pyrimidin-2-yl)amino)-3-methoxyphenyl)-1,4-azaphosphinane 4-oxide]	301 to 1000	301 to 1000	36.3	9.6	27.8	< 100	–
O=C(c1ccc(Nc2nc(NCC3CCCC3)c3c(C(F)(F)F)c[nH]c3n2)c2c1CCO2)N1CCC(N2CCOCC2)CC1 [Example 464, (7-((4-((cyclo-pentylmeth-yl)amino)-5-(trifluoromethyl)-7H-pyrrolo[2,3-d]pyrimidin-2-yl)amino)-2,3-dihydrobenzo-furan-4-yl)(4-morpholino-piperidin-1-yl)methanone]	301 to 1000	301 to 1000	44.2	11.5	12.4	< 100	–
N#Cc1c[nH]c2nc(Nc3ccc(C(=O)N4CCN(C5COC5)CC4)c4c3OCCO4)nc(NC3CCOCC3)c12 [Example 316, 2-((8-(4-(oxetan-3-yl)piperazine-1-carbonyl)-2,3-dihydrobenzo[b] [1,4]dioxin-5-yl)amino)-4-((tetrahydro-2H-pyran-4-yl)amino)-7H-pyrrolo[2,3-d]pyrimidine-5-carbonitrile]	< 100	301 to 1000	15.8	2.3	8.3	–	–
N#Cc1c[nH]c2nc(Nc3ccc(C(=O)N4CCN(C5COC5)CC4)c4c3OCCO4)nc(N[C@H]3CCOC3)c12 [Example 315, (S)-2-((8-(4-(oxetan-3-yl)piperazine-1-carbonyl)-2,3-dihydrobenzo[b] [1,4]dioxin-5-yl)amino)-4-((tetrahydrofuran-3-yl)amino)-7H-pyrrolo[2,3-d]pyrimidine-5-carbonitrile]	< 100	301 to 1000	16.6	-1.8	8.4	–	–
CC[C@H](C)Nc1nc(Nc2ccc(C(=O)N3CCC(N4CCOCC4)CC3)c3c2OCC3)nc2[nH]cc(C#N)c12 [Example 357, (S)-4-(sec-butylamino)-2-((4-(4-morpholino-piperidine-1-carbonyl)-2,3-dihydro-benzofuran-7-yl)amino)-7H-pyrrolo[2,3-d]pyrimidine-5-carbonitrile]	< 100	301 to 1000	35.4	19.7	33.1	< 100	–
N#Cc1c[nH]c2nc(Nc3ccc(C(=O)N4CCC(N5CCOCC5)CC4)c4c3OCC4)nc(NC3CCCCC3)c12 [Example 322, 4-(cyclo-hexylamino)-2-((4-(4-morpholino-piperidine-1-carbonyl)-2,3-dihydro-benzofuran-7-yl)amino)-7H-pyrrolo[2,3-d]pyrimidine-5-carbonitirle]	< 100	< 100	64.3	-10.5	34.2	< 100	< 100
CNc1nc(Nc2ccc(C(=O)N3CCOCC3)c3c2OCC3)nc2[nH]cc(C(F)(F)F)c12 [Example 218, (7-((4-(methylamino)-5-(trifluoromethyl)-7H-pyrrolo[2,3-d]pyrimidin-2-yl)amino)-2,3-dihydrobenzofuran-4-yl)(morpholino)methanone]	< 100	< 100	99.4	57.7	84.3	–	–
CCNc1nc(Nc2ccc(C(=O)N3CC(CO)(CO)C3)c3c2OCCO3)nc2[nH]cc(C#N)c12 [Example 326, 2-((8-(3,3-bis(hydroxy-methyl)azetidine-1-carbonyl)-2,3-dihydrobenzo[b] [1,4]dioxin-5-yl)amino)-4-(ethylamino)-7H-pyrrolo[2,3-d]pyrimidine-5-carbonitrile]	< 100	101 to 300	-1.8	-0.6	13.6	–	–
CNc1nc(Nc2ccc(C(=O)N3CC(CO)(CO)C3)c3c2OCCO3)nc2[nH]cc(C#N)c12 [Example 325, 2-((8-(3,3-bis(hydroxy-methyl)azetidine-1-carbonyl)-2,3-dihydrobenzo[b] [1,4]dioxin-5-yl)amino)-4-(methylamino)-7H-pyrrolo[2,3-d]pyrimidine-5-carbonitrile]	< 100	101 to 300	1.9	6.3	13.5	–	–
O=C(c1ccc(Nc2nc(NCC3CC3)c3c(C(F)(F)F)c[nH]c3n2)c2c1OCCO2)N1CCN(C2COC2)CC1 [Example 422, (8-((4-((cyclo-propylmeth-yl)amino)-5-(trifluoromethyl)-7H-pyrrolo[2,3-d]pyrimidin-2-yl)amino)-2,3-dihydrobenzo[b] [1,4]dioxin-5-yl) (4-(oxetan-3-yl)piperazin-1-yl)methanone]	< 100	301 to 1000	33.2	7.4	19.6	< 100	–
CCCCNc1nc(Nc2ccc(C(=O)N3CCC(N4CCOCC4)CC3)c3c2OCC3)nc2[nH]cc(C(F)(F)F)c12 [Example 466, (7-((4-(butylamino)-5-(trifluoromethyl)-7H-pyrrolo[2,3-d]pyrimidin-2-yl)amino)-2,3-dihydrobenzo-furan-4-yl)(4-morpholino-piperidin-1-yl)methanone]	301 to 1000	301 to 1000	71.3	9.5	39.2	< 100	–
N#Cc1c[nH]c2nc(Nc3ccc(C(=O)N4CCC(N5CCOCC5)CC4)c4c3OCC4)nc(NCC3CCCC3)c12 [Example 343, 4-((cyclo-pentylmeth-yl)amino)-2-((4-(4-morpholinopiperidine-- 1-carbonyl)-2,3-dihydro-benzofuran-7-yl)amino)-7H-pyrrolo[2,3-d]pyrimidine-5-carbonitrile]	301 to 1000	301 to 1000	52	-44.3	16.7	< 100	–
CCNc1nc(Nc2ccc(P3(=O)CCN(C4CCOCC4)CC3)cc2OC)nc2[nH]cc(C(F)(F)F)c12 [Example 439, 4-(4-((4-(ethylamino)-5-(trifluoromethyl)-7H-pyrrolo[2,3-d]pyrimidin-2-yl)amino)-3-methoxyphenyl)-1-(tetrahydro-2H-pyran-4-yl)-1,4-azaphosphinane 4-oxide]	< 100	< 100	55.7	18.8	43.6	–	< 100
